Consider eleven compounds from ChEMBL document CHEMBL1201862, “PubChem BioAssay data set” (2004).

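These data come from cells grown in 96-well plates and exposed to compound for 48 hours at five concentrations. GI50: concentration for 50% inhibition of growth.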 The source made the active and inactive calls. No stated cut-off is given here; in the data, active = GI50 up to about 1.1 µM and inactive = higher.

Some test systems named below: HCT-15; OVCAR-3; KM-20L2; NCI-H522; DMS-273; COLO 205; SNB-78; SK-MEL-28; DMS-114; HOP-92; NCI/ADR-RES; NCI-H226; HCC 2998; A498; CAKI-1; ACHN; LXFL 529; SR.
Common to all, as to test: inhibition of tumour cell growth, NCI panel, 48 h

`O=C1ON(Cc2ccccc2)C(c2ccccc2)N1c1ccccc1` (configuration not stated): the GI50 is more than 100 µM with HCT-15; > 100 µM (inactive) with OVCAR-3; > 100 µM (inactive) in the test on KM-20L2; > 100 µM (inactive) in the test with NCI-H522; > 100 µM (inactive) in the test with DMS-273; > 100 µM (inactive) with COLO 205. Further, the GI50 with SNB-78 was > 100 µM (inactive); with SK-MEL-28 it was > 100 µM (inactive); in the test on DMS-114, > 100 µM (inactive); with HOP-92, > 100 µM (inactive); in the test with NCI/ADR-RES, > 100 µM (inactive); in the test with NCI-H226, 99.1 µM (inactive). For the same compound, the GI50 in the test with HCC 2998 and in the test with A498 was > 100 µM (inactive) in each case.
For the compound `O=NN1C(c2ccccc2)CCCC1c1ccccc1` (configuration not stated), the GI50 with HCT-15 was 62.4 µM; with OVCAR-3 it was > 41.8 µM (inactive); in the test with CAKI-1 it was 97.7 µM (inactive); in the test on KM-20L2 it was > 100 µM (inactive); in the test with NCI-H522 it was 23.4 µM (inactive); in the test on DMS-273, 39.8 µM (inactive). Further, the GI50 was 50.8 µM (inactive) with COLO 205; 46.2 µM (inactive) in the test on SNB-78; > 100 µM (inactive) in the test on SK-MEL-28; 28.6 µM (inactive) in the test with DMS-114; 36.4 µM (inactive) in the test with HOP-92; 51.1 µM (inactive) with NCI/ADR-RES. The GI50 was > 100 µM (inactive) with NCI-H226, 80.4 µM (inactive) in the test on HCC 2998 and 15.1 µM (inactive) in the test on A498.
As to `C=CCN1/C(=C(\C#N)c2nc3ccccc3[nH]2)Sc2c1nc[nH]c2=O`, the GI50 with HCT-15 is more than 100 µM; with OVCAR-3, > 100 µM (inactive); in the test with CAKI-1 it was > 100 µM (inactive); in the test on KM-20L2, > 100 µM (inactive); in the test with NCI-H522 it was > 100 µM (inactive); in the test on DMS-273 it was > 100 µM (inactive). In addition, the GI50 with COLO 205, in the test with SNB-78, with SK-MEL-28, in the test with DMS-114, with ACHN and in the test with HOP-92 was > 100 µM (inactive) in each case. The GI50 in the test with LXFL 529, with SR, with HCC 2998 and in the test with A498 was > 100 µM (inactive) throughout.
For `Cc1ccc(-c2cc(-c3ccco3)c(C#N)c(=O)n2C2OC(CO)C(O)C(O)C2O)cc1` (configuration not stated), the GI50 in the test on HCT-15 is 83.6 µM; in the test on OVCAR-3, 45.6 µM (inactive); in the test with KM-20L2, > 100 µM (inactive); in the test on NCI-H522, 44.5 µM (inactive); in the test with DMS-273, 50.7 µM (inactive); in the test with COLO 205, > 100 µM (inactive). Moreover, the GI50 with SNB-78 is 65.5 µM (inactive); with SK-MEL-28, 37 µM (inactive); in the test with DMS-114, > 100 µM (inactive); in the test on ACHN it was 42.9 µM (inactive); in the test with LXFL 529 it was 61.9 µM (inactive); in the test on NCI-H226 it was 58.6 µM (inactive). Moreover, the GI50 in the test with SR is > 100 µM (inactive); with HCC 2998, > 100 µM (inactive); in the test on A498, 21.6 µM (inactive).
With `O=C(/C=C/c1cccc2ccccc12)c1ccccc1Cl`, the GI50 was 6.53 µM in the test with HCT-15; 12.9 µM (inactive) in the test with OVCAR-3; 14.4 µM (inactive) in the test on CAKI-1; 12.7 µM (inactive) in the test on KM-20L2; 14.4 µM (inactive) with NCI-H522; 14.4 µM (inactive) in the test on DMS-273. Besides, the GI50 is > 100 µM (inactive) in the test on COLO 205; 19.6 µM (inactive) in the test on SNB-78; 19.1 µM (inactive) in the test with SK-MEL-28; 12 µM (inactive) in the test on DMS-114; 17.5 µM (inactive) with ACHN; 13 µM (inactive) with HOP-92. For the same compound, the GI50 in the test with LXFL 529 was 13.8 µM (inactive); in the test with NCI-H226, > 100 µM (inactive); with SR, 4.35 µM (inactive); with HCC 2998 it was 15.2 µM (inactive); in the test with A498, 16 µM (inactive).
On to `Cc1ccc(NC(=O)CC(=O)n2nc(-c3ccccc3)c(/N=N/c3ccccc3Cl)c2-c2ccccc2)cc1`, for which the GI50 is more than 10 µM in the test with HCT-15; > 10 µM (inactive) in the test with OVCAR-3; 42.6 µM (inactive) in the test on CAKI-1; > 10 µM (inactive) in the test on KM-20L2; 65.8 µM (inactive) with NCI-H522; 41.8 µM (inactive) in the test on DMS-273. For the same compound, the GI50 was > 10 µM (inactive) in the test with COLO 205; > 10 µM (inactive) with SNB-78; 62.2 µM (inactive) with SK-MEL-28; > 10 µM (inactive) in the test on DMS-114; 49.9 µM (inactive) in the test with ACHN; 23.6 µM (inactive) with HOP-92. In addition, the GI50 with LXFL 529 is 71.8 µM (inactive); in the test with NCI-H226, > 10 µM (inactive); in the test on SR, > 100 µM (inactive); in the test on HCC 2998, > 10 µM (inactive); in the test with A498, 34 µM (inactive).
Turning to `COC(=O)c1ccc(/N=N/N(C)COc2ccc([N+](=O)[O-])cc2)cc1`, the GI50 in the test on HCT-15 was more than 90.8 µM; in the test on OVCAR-3, > 100 µM (inactive); in the test with KM-20L2, 54.3 µM (inactive); with NCI-H522, > 100 µM (inactive); with DMS-273 it was > 100 µM (inactive); in the test on COLO 205 it was > 57.3 µM (inactive). The GI50 in the test on SNB-78 is > 100 µM (inactive); with SK-MEL-28, > 100 µM (inactive); with DMS-114, > 100 µM (inactive); in the test with HOP-92 it was 65.3 µM (inactive); with NCI/ADR-RES, > 100 µM (inactive); in the test on NCI-H226, > 100 µM (inactive). Besides, the GI50 with HCC 2998 is > 74.5 µM (inactive); in the test on A498, > 87.5 µM (inactive).
For `O=C1C=CC2=[N+]([O-])C(c3ccccc3)(c3ccccc3)/C(=N\c3ccccc3)C2=C1`, the GI50 is 2.03 µM with HCT-15; 1.82 µM (inactive) in the test on OVCAR-3; 2.44 µM (inactive) with CAKI-1; 2.34 µM (inactive) in the test with KM-20L2; 1.61 µM (inactive) with NCI-H522; 2.38 µM (inactive) in the test on DMS-273. In addition, the GI50 is 3.74 µM (inactive) in the test on SNB-78; 1.85 µM (inactive) in the test on DMS-114; 1.74 µM (inactive) with ACHN; 1.7 µM (inactive) with HOP-92; 1.78 µM (inactive) in the test on LXFL 529; 8.89 µM (inactive) in the test on NCI-H226. The GI50 was 0.269 µM (active) in the test with SR and 6.3 µM (inactive) in the test with HCC 2998.
With `COC(=O)C12CC3CC(CC(C(=O)O)(C3)C1)C2`, the GI50 was more than 100 µM with HCT-15; > 100 µM (inactive) in the test on OVCAR-3; > 100 µM (inactive) in the test with CAKI-1; > 100 µM (inactive) in the test on KM-20L2; > 100 µM (inactive) in the test with NCI-H522; > 100 µM (inactive) with DMS-273. For the same compound, the GI50 with SNB-78, with SK-MEL-28, with ACHN, in the test on HOP-92, in the test on LXFL 529 and with SR was > 100 µM (inactive) each time. Besides, the GI50 in the test on HCC 2998 and in the test on A498 was > 100 µM (inactive) each time.
In the case of `CC(=O)O[C@]12CCCCCC1C1(O)C(O)CCCC[C@H]12` (some centres not stated), the GI50 is more than 100 µM in the test with HCT-15; > 100 µM (inactive) with KM-20L2; > 100 µM (inactive) in the test with NCI-H522; > 100 µM (inactive) with DMS-273; > 100 µM (inactive) with COLO 205; > 100 µM (inactive) in the test on SNB-78. The GI50 with SK-MEL-28, with DMS-114, in the test on ACHN, in the test on LXFL 529, with NCI-H226 and with SR was > 100 µM (inactive) each time.
In the case of `O=C(O)Cc1cccc2c1Oc1ccccc1S2`, the GI50 in the test on HCT-15 was more than 100 µM; in the test with OVCAR-3, > 100 µM (inactive); in the test on KM-20L2, > 100 µM (inactive); with DMS-273 it was > 100 µM (inactive); with COLO 205 it was > 100 µM (inactive); in the test on SNB-78 it was > 100 µM (inactive). In addition, the GI50 with SK-MEL-28, with DMS-114, in the test on ACHN, in the test on HOP-92, in the test on LXFL 529 and in the test on NCI-H226 was > 100 µM (inactive) each time. The GI50 in the test on HCC 2998 and in the test on A498 was > 100 µM (inactive) in each case.
